Data reported in patent US6951863B2, “Pyridoarylphenly oxazolidinone antibacterials, and related compositions and methods” (Ortho-McNeil Pharmaceutical, Inc., priority 2001, dated 2005).
≈ marks a conversion by molar mass, not a printed value.

What was measured:
S. aureus OC4172 = test: MIC, microdilution broth method (NCCLS); assay type: cell-based; settings: Staphylococcus aureus, 35° C., 16-20 hours, read-out: MIC (μg/mL) in Test Strains S. aureus OC4172
Description: (§1) Minimal inhibitory concentration (MIC) has been an indicator of in vitro antibacterial activity widely used in the art. The in vitro antimicrobial activity of the compounds was determined by the microdilution broth method following the test method from the National Committee for Laboratory Standards (NCCLS). This method is described in the NCCLS Document M7-A4, Vol. 17, No. 2, “Methods for Dilution Antimicrobial Susceptibility Test for Bacteria that Grow Aerobically—Fourth Edition”, which is incorporated herein by reference.
(§2) In this method two-fold serial dilutions of drug in cation adjusted Mueller-Hinton broth are added to wells in microdilution trays. The test organisms are prepared by adjusting the turbidity of actively growing broth cultures so that the final concentration of test organism after it is added to the wells is approximately 5×10^4 CFU/well.
(§3) Following inoculation of the microdilution trays, the trays are incubated at 35° C. for 16-20 hours and then read. […] The amount of growth in the wells containing the test compound is compared with the amount of growth in the growth-control wells (no test compound) used in each tray. As set forth in Table 1, some compounds of the present invention were tested against a variety of pathogenic bacteria resulting in a range of activities, from 1 to >128 μg/mL depending on the organism tested. S. aureus OC2878 is a MRSA and E. faecium OC3312 is a vancomycin-resistant enterococcus.

S. aureus OC2878 = test: MIC, microdilution broth method (NCCLS); assay type: cell-based; settings: Staphylococcus aureus; S. aureus OC2878 (MRSA); 35° C., 16-20 hours; read-out: MIC (μg/mL) in Test Strains S. aureus OC2878
Description: as §1, §2, §3

E. faecium OC3312 = test: MIC, microdilution broth method (NCCLS); assay type: cell-based; settings: E. faecium OC3312 (vancomycin-resistant enterococcus); 35° C., 16-20 hours; read-out: MIC (μg/mL) in Test Strains E. faecium OC3312
Description: as §1, §2, §3

MIC (S. aureus OC4172) [µg/mL]	MIC (S. aureus OC2878) [µg/mL]	MIC (E. faecium OC3312) [µg/mL]	melting point	SMILES
8 (≈ 16.6 µM)	8 (≈ 16.6 µM)	8 (≈ 16.6 µM)		CC(=O)NC[C@H]1CN(c2ccc(N3CCc4nc(-c5csc(C)n5)ncc4C3)c(F)c2)C(=O)O1 [Compound 7, acetamide, N-[[(5S)-3-[4-[7,8-dihydro-2-(2-methyl-4-thiazolyl)pyrido[4,3-d]pyrimidin-6(5H)-yl]-3-fluorophenyl]-2-oxo-5-oxazolidinyl]methyl]-]
8 (≈ 20.8 µM)	4 (≈ 10.4 µM)	8 (≈ 20.8 µM)	141 to 144 °C (dec.)	CC(=O)NC[C@H]1CN(c2ccc(N3CCc4ccncc4C3)c(F)c2)C(=O)O1 [Compound 3, acetamide, N-[[(5S)-3-[4-(3,4-dihydro-2,7-naphthyridin-2(1H)-yl)-3-fluorophenyl]-2-oxo-5-oxazolidinyl]methyl]-]
16 (≈ 41.3 µM)	8 (≈ 20.6 µM)	16 (≈ 41.3 µM)		CC(=O)NC[C@H]1CN(c2ccc(N3CCc4c(cnn4C)C3)c(F)c2)C(=O)O1 [Compound 11, acetamide, N-[[(5S)-3-[4-(1,4,6,7-tetrahydro-1-methyl-5H-pyrazolo[4,3-c]pyridin-5-yl)-3-fluorophenyl]-2-oxo-5-oxazolidinyl]methyl]-]
8 (≈ 21.4 µM)	8 (≈ 21.4 µM)	16 (≈ 42.9 µM)		CC(=O)NC[C@H]1CN(c2ccc(N3CCc4[nH]ncc4C3)c(F)c2)C(=O)O1 [Compound 10, acetamide, N-[[(5S)-3-[4-(1,4,6,7-tetrahydro-5H-pyrazolo[4,3-c]pyridin-5-yl)-3-fluorophenyl]-2-oxo-5-oxazolidinyl]methyl]-]
8 (≈ 20.9 µM)	4 (≈ 10.4 µM)	8 (≈ 20.9 µM)	131 to 134 °C	CC(=O)NC[C@H]1CN(c2ccc(N3CCc4ccccc4C3)c(F)c2)C(=O)O1 [Compound 2, acetamide, N-[[(5S)-3-[4-(3,4-dihydro-2(1H)-isoquinolinyl)-3-fluorophenyl]-2-oxo-5-oxazolidinyl]methyl]-]
2 (≈ 4.32 µM)	2 (≈ 4.32 µM)	4 (≈ 8.65 µM)		CC(=O)NC[C@H]1CN(c2ccc(N3CCc4nc(-c5ccncc5)ncc4C3)c(F)c2)C(=O)O1 [Compound 8, acetamide, N-[[(5S)-3-[4-[7,8-dihydro-2-(4-pyridinyl)pyrido[4,3-d]pyrimidin-6(5H)-yl]-3-fluorophenyl]-2-oxo-5-oxazolidinyl]methyl]-]
128 (≈ 374 µM)	32 (≈ 93.5 µM)	> 128		O=C1O[C@@H](CO)CN1c1ccc(N2CCc3ccccc3C2)c(F)c1 [Compound 1, 2-oxazolidinone, 3-[4-(3,4-dihydro-2(1H)-isoquinolinyl)-3-fluorophenyl]-5-(hydroxymethyl)-, (5R)-]
4 (≈ 8.63 µM)	4 (≈ 8.63 µM)	8 (≈ 17.3 µM)		CC(=O)NC[C@H]1CN(c2ccc(N3CCc4nc(-c5cnccn5)ncc4C3)c(F)c2)C(=O)O1 [Compound 9, acetamide, N-[[(5S)-3-[4-(7,8-dihydro-2-pyrazinylpyrido[4,3-d]pyrimidin-6(5H)-yl)-3-fluorophenyl]-2-oxo-5-oxazolidinyl]methyl]-]
4 (≈ 10 µM)	2 (≈ 5.01 µM)	8 (≈ 20 µM)		CC(=O)NC[C@H]1CN(c2ccc(N3CCc4nc(C)ncc4C3)c(F)c2)C(=O)O1 [Compound 6, acetamide, N-[[(5S)-3-[4-(7,8-dihydro-2-methylpyrido[4,3-d]pyrimidin-6(5H)-yl)-3-fluorophenyl]-2-oxo-5-oxazolidinyl]methyl]-]
4 (≈ 10.4 µM)	2 (≈ 5.19 µM)	8 (≈ 20.8 µM)		CC(=O)NC[C@H]1CN(c2ccc(N3CCc4ncncc4C3)c(F)c2)C(=O)O1 [Compound 5, acetamide, N-[[(5S)-3-[4-(7,8-dihydropyrido[4,3-d]pyrimidin-6(5H)-yl)-3-fluorophenyl]-2-oxo-5-oxazolidinyl]methyl]-]
32 (≈ 80.3 µM)	16 (≈ 40.2 µM)	32 (≈ 80.3 µM)		CC(=O)NC[C@H]1CN(c2ccc(N3CCc4cnccc4C3=O)c(F)c2)C(=O)O1 [Compound 4, acetamide, N-[[(5S)-3-[4-(3,4-dihydro-1-oxo-2,6-naphthyridin-2(1H)-yl)-3-fluorophenyl]-2-oxo-5-oxazolidinyl]methyl]-]
